Data reported in US12264159B2, “Functionalized heterocycles as antiviral agents” (Enanta Pharmaceuticals, Inc., priority 2018, dated 2025).

Experiments:
HBV in 2.2.15 cells = test: 2.2.15 cells: viral product in cell lysates quantified via quantitative real time PCR; assay type: cell-based, hepatitis B virus (HBV); details: Hepatitis B virus, 120 h, day 5 post treatment, 50% reduction of viral product vs no drug controls, readout (qPCR, HBsAg or HBeAg) not specified for the column
Procedure, shortened: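 HBV product was measured at day 5 by lysate qPCR or by supernatant HBsAg/HBeAg ELISA, in 2.2.15 cells seeded at 35,000/well and exposed to 5-fold compound dilution series (0.5% DMSO). EC50 is 50% reduction of viral product relative to untreated controls.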

[1] = Compound induced cellular toxicity in HepG2 cells, ATPlite 1Step; assay type: cell-based; details: human, three days exposure, 50% reduction of total ATP vs no drug controls
Procedure: At day 3, post seeding cells are treated with ATPlite 1Step according to the manufacturer's instructions.

| SMILES | EC50 (HBV in 2.2.15 cells) [nM] | CC50 at 3 days [1] [nM] |
| --- | --- | --- |
| CC(C)[C@@H]1Cn2nc(C3CC3)c(-c3ccsc3)c2-c2cc(=O)c(C(=O)O)cn21 [Example 128, (R)-2-cyclopropyl-6-isopropyl-10-oxo-1-(thiophen-3-yl)-5,6-dihydro-10H-pyrazolo[1,5-a]pyrido[2,1-c]pyrazine-9-carboxylic acid] | < 100 | > 25000 |
| CC(C)(C)[C@@H]1Cn2nc(-c3cc(F)ccc3C#N)cc2-c2cc(=O)c(C(=O)O)cn21 [Example 42, (R)-6-(tert-butyl)-2-(2-cyano-5-fluorophenyl)-10-oxo-5,6-dihydro-10H-pyrazolo[1,5-a]pyrido[2,2-c]pyrazine-12-carboxylic acid] | < 100 | > 25000 |
| CC(C)[C@@H]1Cn2nc(C3CC3)c(-c3cccs3)c2-c2cc(=O)c(C(=O)O)cn21 [Example 131, (R)-2-cyclopropyl-6-isopropyl-10-oxo-1-(thiophen-2-yl)-5,6-dihydro-10H-pyrazolo[1,5-a]pyrido[2,1-c]pyrazine-9-carboxylic acid] | < 100 | > 25000 |
| CC(C)(C)[C@@H]1Cn2nc(C3CC3)c(-c3cc(F)ccc3F)c2-c2cc(=O)c(C(=O)O)cn21 [Example 155, (R)-6-(tert-butyl)-2-cyclopropyl-1-(2,5-difluorophenyl)-10-oxo-5,6-dihydro-10H-pyrazolo[1,5-a]pyrido[2,1-c]pyrazine-9-carboxylic acid] | < 100 | > 25000 |
| CC(C)(C)[C@@H]1Cn2ncc(-c3cccc(OC(F)(F)F)c3)c2-c2cc(=O)c(C(=O)O)cn21 [Example 116, (R)-6-(tert-butyl)-10-oxo-1-(3-(trifluoromethoxy)phenyl)-5,6-dihydro-10H-pyrazolo[1,5-a]pyrido[2,1-c]pyrazine-9-carboxylic acid] | < 100 | > 25000 |
| CC(C)[C@@H]1Cn2nc(-c3ccc(F)cc3)c(-c3ccc(F)cc3)c2-c2cc(=O)c(C(=O)O)cn21 [Example 180, (R)-1,2-bis(4-fluorophenyl)-6-isopropyl-10-oxo-5,6-dihydro-10H-pyrazolo[1,5-a]pyrido[2,1-c]pyrazine-9-carboxylic acid] | < 100 | 10000 to 25000 |
| CC(C)(C)[C@@H]1Cn2nc(-c3ccccc3F)c(-c3ccccc3F)c2-c2cc(=O)c(C(=O)O)cn21 [Example 95, (R)-6-(tert-butyl)-1,2-bis(2-fluorophenyl)-10-oxo-5,6-dihydro-10H-pyrazolo[1,5-a]pyrido[2,1-c]pyrazine-9-carboxylic acid] | < 100 | > 25000 |
| CC(C)(C)[C@@H]1Cn2nc(-c3c(O)cccc3F)cc2-c2cc(=O)c(C(=O)O)cn21 [Example 47, (R)-6-(tert-butyl)-2-(2-fluoro-6-hydroxyphenyl)-10-oxo-5,6-dihydro-10H-pyrazolo[1,5-a]pyrido[2,2-c]pyrazine-12-carboxylic acid] | < 100 | > 25000 |
| CC(C)(C)[C@@H]1Cn2nc(-c3cccc4occc34)cc2-c2cc(=O)c(C(=O)O)cn21 [Example 28, (R)-2-(benzofuran-4-yl)-6-(tert-butyl)-10-oxo-5,6-dihydro-10H-pyrazolo[1,5-a]pyrido[2,2-c]pyrazine-12-carboxylic acid] | < 100 | > 25000 |
| CC(C)(C)[C@@H]1Cn2nc(-c3cccc4c3sc3ccccc34)cc2-c2cc(=O)c(C(=O)O)cn21 [Example 70, (R)-6-(tert-butyl)-2-(dibenzo[b,d]thiophen-4-yl)-10-oxo-5,6-dihydro-10H-pyrazolo[1,5-a]pyrido[2,2-c]pyrazine-12-carboxylic acid] | 200 to 1000 | > 25000 |
| O=C(O)c1cn2c(cc1=O)-c1c(-c3cccc(F)c3)c(-c3cccc(F)c3)nn1CC2 [Example 201, 1,2-bis(3-fluorophenyl)-10-oxo-5,6-dihydro-10H-pyrazolo[1,5-a]pyrido[2,1-c]pyrazine-9-carboxylic acid] | < 100 | > 25000 |
| CC(C)(C)[C@@H]1Cn2nc(-c3cccc4c3OCCO4)cc2-c2cc(=O)c(C(=O)O)cn21 [Example 57, (R)-6-(tert-butyl)-2-(2,3-dihydrobenzo[b][1,4]dioxin-5-yl)-10-oxo-5,6-dihydro-10H-pyrazolo[1,5-a]pyrido[2,2-c]pyrazine-12-carboxylic acid] | < 100 | > 25000 |
| CC(C)(C)[C@@H]1Cn2nc(-c3cccc4nonc34)cc2-c2cc(=O)c(C(=O)O)cn21 [Example 58, (R)-2-(benzo[c][1,2,5]oxadiazol-4-yl)-6-(tert-butyl)-10-oxo-5,6-dihydro-10H-pyrazolo[1,5-a]pyrido[2,2-c]pyrazine-12-carboxylic acid] | < 100 | > 25000 |
| CC(C)(C)[C@@H]1Cn2nc(-c3cccc(F)c3)cc2-c2cc(=O)c(C(=O)O)cn21 [Example 2, (R)-6-(tert-butyl)-2-(3-fluorophenyl)-10-oxo-5,6-dihydro-10H-pyrazolo[1,5-a]pyrido[2,2-c]pyrazine-12-carboxylic acid] | < 100 | > 25000 |
| COc1c(-c2cc3n(n2)C[C@@H](C(C)(C)C)n2cc(C(=O)O)c(=O)cc2-3)ccc(F)c1F [Example 69, (R)-6-(tert-butyl)-2-(3,4-difluoro-2-methoxyphenyl)-10-oxo-5,6-dihydro-10H-pyrazolo[1,5-a]pyrido[2,2-c]pyrazine-12-carboxylic acid] | < 100 | > 25000 |
| CC(C)(C)[C@@H]1Cn2nc(-c3cccc4ccoc34)cc2-c2cc(=O)c(C(=O)O)cn21 [Example 27, (R)-2-(benzofuran-7-yl)-6-(tert-butyl)-10-oxo-5,6-dihydro-10H-pyrazolo[1,5-a]pyrido[2,2-c]pyrazine-12-carboxylic acid] | < 100 | > 25000 |
| COc1ccc(OC)c(-c2cc3n(n2)C[C@@H](C(C)(C)C)n2cc(C(=O)O)c(=O)cc2-3)c1 [Example 32, (R)-6-(tert-butyl)-2-(2,5-dimethoxyphenyl)-10-oxo-5,6-dihydro-10H-pyrazolo[1,5-a]pyrido[2,2-c]pyrazine-12-carboxylic acid] | < 100 | > 25000 |
| CC(C)(C)[C@@H]1Cn2nc(-c3cccc4c3OC(F)(F)O4)c(Cl)c2-c2cc(=O)c(C(=O)O)cn21 [Example 88, (R)-6-(tert-butyl)-1-chloro-2-(2,2-difluorobenzo[d][1,3]dioxol-4-yl)-10-oxo-5,6-dihydro-10H-pyrazolo[1,5-a]pyrido[2,1-c]pyrazine-9-carboxylic acid] | < 100 | > 25000 |
| CC(C)(C)[C@@H]1Cn2nc(-c3ccc(F)cc3)c(F)c2-c2cc(=O)c(C(=O)O)cn21 [Example 93, (R)-6-(tert-butyl)-1-fluoro-2-(4-fluorophenyl)-10-oxo-5,6-dihydro-10H-pyrazolo[1,5-a]pyrido[2,1-c]pyrazine-9-carboxylic acid] | < 100 | > 25000 |
| CC(C)(C)[C@@H]1Cn2nc(-c3ccc(OC(F)(F)F)cc3)cc2-c2cc(=O)c(C(=O)O)cn21 [Example 25, (R)-6-(tert-butyl)-10-oxo-2-(4-(trifluoromethoxy)phenyl)-5,6-dihydro-10H-pyrazolo[1,5-a]pyrido[2,2-c]pyrazine-12-carboxylic acid] | 200 to 1000 | > 25000 |
| CC(C)[C@@H]1Cn2nc(C3CC3)c(-c3cccc(O)c3)c2-c2cc(=O)c(C(=O)O)cn21 [Example 142, (R)-2-cyclopropyl-1-(3-hydroxyphenyl)-6-isopropyl-10-oxo-5,6-dihydro-10H-pyrazolo[1,5-a]pyrido[2,1-c]pyrazine-9-carboxylic acid] | < 100 | > 25000 |
| CC(C)(C)[C@@H]1Cn2nc(-c3cc(F)c(F)cc3O)cc2-c2cc(=O)c(C(=O)O)cn21 [Example 66, (R)-6-(tert-butyl)-2-(4,5-difluoro-2-hydroxyphenyl)-10-oxo-5,6-dihydro-10H-pyrazolo[1,5-a]pyrido[2,2-c]pyrazine-12-carboxylic acid] | < 100 | > 25000 |
| COc1ncc(-c2cc3n(n2)C[C@@H](C(C)(C)C)n2cc(C(=O)O)c(=O)cc2-3)cn1 [Example 6, (R)-6-(tert-butyl)-2-(2-methoxypyrimidin-5-yl)-10-oxo-5,6-dihydro-10H-pyrazolo[1,5-a]pyrido[2,2-c]pyrazine-12-carboxylic acid] | < 100 | > 25000 |
| CC(C)(C)[C@@H]1Cn2nc(-c3cccc4scnc34)cc2-c2cc(=O)c(C(=O)O)cn21 [Example 31, (R)-2-(benzo[d]thiazol-4-yl)-6-(tert-butyl)-10-oxo-5,6-dihydro-10H-pyrazolo[1,5-a]pyrido[2,2-c]pyrazine-12-carboxylic acid] | < 100 | > 25000 |
| Cc1ncc(-c2cc3n(n2)C[C@@H](C(C)(C)C)n2cc(C(=O)O)c(=O)cc2-3)s1 [Example 19, (R)-6-(tert-butyl)-2-(2-methylthiazol-5-yl)-10-oxo-5,6-dihydro-10H-pyrazolo[1,5-a]pyrido[2,2-c]pyrazine-12-carboxylic acid] | < 100 | > 25000 |
| CC(C)[C@@H]1Cn2nc(-c3ccccc3)c(-c3ccccc3)c2-c2cc(=O)c(-c3ncn[nH]3)cn21 [Example 192, (R)-6-isopropyl-1,2-diphenyl-9-(1H-1,2,4-triazol-5-yl)-5,6-dihydro-10H-pyrazolo[1,5-a]pyrido[2,1-c]pyrazin-10-one] | < 100 | > 25000 |
| CC(C)(C)[C@@H]1Cn2nc(-c3c(F)cccc3Cl)cc2-c2cc(=O)c(C(=O)O)cn21 [Example 65, (R)-6-(tert-butyl)-2-(2-chloro-6-fluorophenyl)-10-oxo-5,6-dihydro-10H-pyrazolo[1,5-a]pyrido[2,2-c]pyrazine-12-carboxylic acid] | < 100 | > 25000 |
